Laboratory results: patent US9387219B2, “Edible composition” (Conopco, Inc., priority 2011, dated 2016)
Several values for one entry are separate records, joined by “and”; a condition that tells them apart may be missing. Equal values may be shown once.

Columns and labels:
GLUT2 = biological target: T1, GLUT2 (Homo sapiens, UniProt P11168); test: Glucose transport inhibitor cell screening assay, 25 mM D-glucose for 30 minutes (GLUT2 inhibition); assay type: cell-based; settings: for GLUT2 inhibitory activity (in words): Caco-2 cell model
T1 construct: endogenous in cells; host or cells: differentiated Caco-2 cell monolayers (ATCC)
T1 sequence (P11168 1-524): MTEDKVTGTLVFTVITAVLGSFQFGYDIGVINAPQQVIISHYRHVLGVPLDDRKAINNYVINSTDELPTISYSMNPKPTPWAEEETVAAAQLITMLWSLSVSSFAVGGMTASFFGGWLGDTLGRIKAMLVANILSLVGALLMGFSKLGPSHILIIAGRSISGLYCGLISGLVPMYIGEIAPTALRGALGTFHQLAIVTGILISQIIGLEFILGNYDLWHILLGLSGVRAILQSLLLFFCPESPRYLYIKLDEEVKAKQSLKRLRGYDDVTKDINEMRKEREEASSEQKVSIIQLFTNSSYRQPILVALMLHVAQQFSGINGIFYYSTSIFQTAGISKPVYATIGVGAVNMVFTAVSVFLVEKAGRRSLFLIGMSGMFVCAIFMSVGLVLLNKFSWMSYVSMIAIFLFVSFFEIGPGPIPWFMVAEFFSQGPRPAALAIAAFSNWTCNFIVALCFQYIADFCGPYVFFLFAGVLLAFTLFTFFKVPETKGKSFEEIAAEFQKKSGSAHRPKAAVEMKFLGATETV
Protocol: (§1) Human epithelial colorectal adenocarcinoma (Caco-2) cells were obtained from the American Type Culture Collection (ATCC) and cultured in Growth Medium consisting of Dulbecco's modified Eagle's medium (containing Glutamax-1, 4.5 g/L D-glucose and 25 mM 4-(2-hydroxyethyl)-1-piperazine ethanesulphonic acid (Hepes) (Invitrogen)), 10% foetal bovine serum (Sigma), 1% non-essential amino acids (Invitrogen) and 1 mM sodium pyruvate (Sigma)). The cells were routinely passaged at approximately 80% confluence using TrypLE™ Express Stable Trypsin-Like Enzyme (Invitrogen) to detach the cells, and seeded at approximately 114 cells per mm^2 in fresh tissue culture flasks. Only cells between the passage numbers 45 and 49 were used for experiments.
(§2) Corning® HTS Transwell® 96 well permeable insert supports (Sigma) were collagen coated with 40 μl of 50 μg/ml rat tail collagen type I (BD Biosciences) in 0.02 M acetic acid for one hour at room temperature under sterile conditions. The inserts were washed twice in phosphate buffered saline (PBS (Invitrogen)) and the Caco-2 cells seeded into the inserts at 9.6×10^5 cell/ml (75 μl per insert) in Growth Medium and 30 ml of Growth Medium added to the feeder plate below. The cells were left to attach to the collagen matrix and form monolayers over 48 hours at 37° C., 5% CO2. Both inserts and feeder plate were washed in PBS and the cells incubated with BD Entero-STIM™ Enterocyte Differentiation Medium containing MITO+™ Serum Extender solution (both BD Biosciences), 75 μl per insert and 30 ml in the feeder plate, for a further 48 hours at 37° C., 5% CO2.
(§3) Differentiated cell monolayers were washed gently in Dulbecco's Phosphate Buffered Saline containing CaCl2 and MgCl2 (PBS(+) (Invitrogen)) and the inserts transferred to a new Corning® HTS Transwell®-96 well receiver plate (Sigma). The cells were incubated with fresh PBS(+) (75 μl per insert and 225 μl per well) for 60 minutes at 37° C., 5% CO2. The PBS(+) was gently aspirated and replaced with 75 μl per insert of either 5 mM D-glucose (Sigma)±test active or 25 mM D-glucose±test active in triplicate and 225 μl per well of PBS(+) quickly added to each well. The 5 mM glucose wells and the 25 mM glucose wells were incubated at 37° C., 5% CO2 for 15 minutes and 30 minutes, respectively. Details of all the actives tested are found in table 1. The cell inserts were transferred to a new receiver plate, the supernatant gently aspirated from the cells and replaced with 100 μl of 100 μM of Lucifer Yellow (Sigma) solution to confirm the integrity of the monolayers. 225 μl of PBS(+) was added to each well and incubated at 37° C., 5% CO2 for 1 hour. The cell inserts were then discarded and the permeability of the membranes to Lucifer Yellow checked by measuring the fluorescence of the samples at 485 nm (excitation) and 530 nm (emission) on a Spectramax Gemini EM fluorescence microplate reader.
(§4) The amount of glucose transported across the cell monolayers was measured using a glucose assay based on Invitrogen's Amplex Red Glucose/Glucose oxidase Assay Kit. Briefly, 50 μl of each test sample was transferred to a black sided/clear bottom 96-well plate (Greiner Bio-One) to which 100 μl of reaction buffer (0.5 μl 10 mM Ampliflu Red, 1 μl 10 U/ml Horse Radish peroxidase, 1 μl 100 U/ml glucose oxidase and 97.5 μl PBS (all Sigma)) was added. After 10 minutes incubation at room temperature, the fluorescence of the samples were measured at 530 nm (excitation) and 590 nm (emission) on a Spectramax Gemini EM fluorescence microplate reader and the glucose concentration extrapolated from a standard curve.
(§5) At higher D-glucose concentrations, the SGLT1 transporter becomes saturated and consequently the majority of glucose transport across the monolayer is driven by the low affinity, high capacity GLUT2 transporter that is targeted to the apical membrane only following an initial SGLT1-dependent transport of glucose.

[1] = biological target: T2, Human Lactase Phloridzin Hydrolase (hLPH) (Homo sapiens, UniProt P09848); test: hLPH enzyme assay (glucoside hydrolysis by LPH extract from Caco-2 cells); assay type: in vitro ADME; settings: for μM substrate hydrolysed/hr / Resistance to hydrolysis-% Q4G: glucoside 1.0 mM, 1 hour at 37° C.; for μM substrate hydrolysed/hr: 10% LPH extract (Caco2 cell-line), pH 6.0; for Resistance to hydrolysis-% Q4G: relative to Q4G, 10% LPH extract
T2 construct: endogenous in cells; host or cells: Caco-2 cells held at confluence for 21 days; trans-membrane protein extract passed through a G-25 Sephadex spin column
T2 sequence (P09848 869-1927): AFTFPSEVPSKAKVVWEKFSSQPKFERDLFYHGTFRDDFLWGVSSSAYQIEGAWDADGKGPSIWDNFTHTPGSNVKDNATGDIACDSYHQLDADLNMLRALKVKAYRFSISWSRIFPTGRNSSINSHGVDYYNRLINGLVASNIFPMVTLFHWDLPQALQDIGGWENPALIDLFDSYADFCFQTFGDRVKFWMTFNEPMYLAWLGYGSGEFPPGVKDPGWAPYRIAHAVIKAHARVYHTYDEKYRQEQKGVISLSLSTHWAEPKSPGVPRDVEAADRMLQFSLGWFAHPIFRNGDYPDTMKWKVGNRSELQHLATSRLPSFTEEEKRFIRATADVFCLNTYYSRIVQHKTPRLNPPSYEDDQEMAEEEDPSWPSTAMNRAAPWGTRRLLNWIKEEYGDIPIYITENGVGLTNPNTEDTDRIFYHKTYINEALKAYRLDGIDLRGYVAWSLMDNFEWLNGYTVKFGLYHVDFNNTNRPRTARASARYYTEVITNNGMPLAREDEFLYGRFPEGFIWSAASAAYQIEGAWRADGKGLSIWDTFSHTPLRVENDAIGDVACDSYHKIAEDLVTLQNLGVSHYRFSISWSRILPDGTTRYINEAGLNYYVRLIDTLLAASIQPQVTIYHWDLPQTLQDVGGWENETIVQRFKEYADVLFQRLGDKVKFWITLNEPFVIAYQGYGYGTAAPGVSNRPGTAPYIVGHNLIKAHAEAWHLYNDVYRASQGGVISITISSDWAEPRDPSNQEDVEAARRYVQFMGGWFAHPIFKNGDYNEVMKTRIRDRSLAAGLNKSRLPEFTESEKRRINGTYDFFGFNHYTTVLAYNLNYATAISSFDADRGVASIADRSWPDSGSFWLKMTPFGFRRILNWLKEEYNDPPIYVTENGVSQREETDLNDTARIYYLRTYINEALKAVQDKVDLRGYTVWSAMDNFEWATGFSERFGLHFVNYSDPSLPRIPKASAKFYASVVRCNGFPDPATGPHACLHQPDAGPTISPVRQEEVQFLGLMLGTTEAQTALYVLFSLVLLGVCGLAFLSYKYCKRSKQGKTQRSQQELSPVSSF
Protocol: Extracts were stored at −80° C. in 50 ul aliquots. Prior to use extracts were semi-purified, removing low molecular weight interfering components by passing through a small G-25 Sephadex 50-100 μl spin-column (Roche or ThermoFisher Scientific). 10 μl of semi-purified LPH extract was added to 90 μl of glucoside (1.0 mM final concentration) in 0.1 M maleate (Sigma) buffer, pH 6.0 and incubated for 60 minutes at 37° C. The reaction was terminated by addition of 200 μl 2M Tris (Sigma), pH 8.0. […] This allowed a full recovery of glucose which was measured using the Amplex® Red Glucose/Glucose Oxidase Assay. […] Fluorescence was read on a SpectraMax Gemini EM SN plate reader (Molecular Devices) (excitation. 530 nm and emission at 590 nm).

SGLT1 = biological target: T3, SGLT1 (Homo sapiens, UniProt P13866); test: Glucose transport inhibitor cell screening assay, 5 mM D-glucose for 15 minutes (SGLT1 inhibition); assay type: cell-based; settings: for SGLT1 inhibitory activity (in words): Caco-2 cell model; for Class (assigned class of transporter inhibited): assigned from % inhibition at 5 mM and 25 mM D-glucose in Caco-2 cells
T3 construct: endogenous in cells; host or cells: differentiated Caco-2 cell monolayers (ATCC)
T3 sequence (P13866 1-664): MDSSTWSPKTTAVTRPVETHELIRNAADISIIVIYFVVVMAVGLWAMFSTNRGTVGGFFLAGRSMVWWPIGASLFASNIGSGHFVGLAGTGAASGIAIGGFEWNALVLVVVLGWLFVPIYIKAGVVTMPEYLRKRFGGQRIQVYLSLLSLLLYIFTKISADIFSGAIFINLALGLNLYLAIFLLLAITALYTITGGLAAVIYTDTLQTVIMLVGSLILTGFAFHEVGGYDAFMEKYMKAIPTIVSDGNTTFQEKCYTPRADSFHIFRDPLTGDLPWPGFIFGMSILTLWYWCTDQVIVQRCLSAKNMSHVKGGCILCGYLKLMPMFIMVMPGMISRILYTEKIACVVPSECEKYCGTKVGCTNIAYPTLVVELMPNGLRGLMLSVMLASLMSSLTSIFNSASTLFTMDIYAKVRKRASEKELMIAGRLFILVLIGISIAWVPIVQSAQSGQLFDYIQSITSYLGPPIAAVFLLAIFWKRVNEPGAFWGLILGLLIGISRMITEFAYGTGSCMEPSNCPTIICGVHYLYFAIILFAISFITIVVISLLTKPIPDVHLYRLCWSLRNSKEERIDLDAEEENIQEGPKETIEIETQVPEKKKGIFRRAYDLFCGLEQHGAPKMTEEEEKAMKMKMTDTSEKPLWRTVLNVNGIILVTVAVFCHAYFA
Protocol: as §1, §2, §3, §4, §5

[2] = differentiated Caco-2 monolayer, 30 minutes, active at 150 uM
[3] = differentiated Caco-2 monolayer, 5 mM D-glucose, 15 minutes, active at 300 uM

SMILES | μM substrate hydrolysed/hr [1] | SGLT1 inhibitory activity (in words) (SGLT1; 5 mM D-glucose) | Class (assigned class of transporter inhibited) (SGLT1) | inhibition at 150 µM (GLUT2; [2]) | inhibition at 300 µM (SGLT1; [3]) | also measured
O=c1cc(-c2ccc(O)cc2)oc2c([C@@H]3O[C@H](CO)[C@@H](O)[C@H](O)[C@H]3O)c(O)cc(O)c12 [Apigenin-8-C-glucoside] | 0.685 μM substrate hydrolysed/hr | inhibition of SGLT1 | SGLT1 |  |  | % Glucose Transport inhibition 25 mM (GLUT2; [2]): 5.76%; Resistance to hydrolysis-% Q4G [1]: 77.90%; % Glucose Transport inhibition 5 mM (SGLT1; [3]): 33.84%
O=c1c(O[C@@H]2O[C@H](CO)[C@@H](O)[C@H](O)[C@H]2O)c(-c2ccc(O)cc2)oc2cc(O)cc(O)c12 [Kaempferol 3-O-glucoside] | 0.224 μM substrate hydrolysed/hr | inhibition of SGLT1 | SGLT1 |  |  | Resistance to hydrolysis-% Q4G ([1]; listed as K3G): 92.8% and 92.78%
O=c1c(O)c(-c2cc(O)c(O)c(O)c2)oc2cc(O)cc(O)c12 [Myricetin] |  |  | GLUT2 (GLUT2 inhibitors having ≧20% inhibition at both 5 mM and 25 mM D-glucose levels) | 55% | 76.8% | 
O=C1C[C@@H](c2ccc(O)cc2)Oc2cc(O)cc(O)c21 [Naringenin] |  |  | GLUT2 (GLUT2 inhibitors having ≧20% inhibition at both 5 mM and 25 mM D-glucose levels) | 57% | 69% | 
OC[C@H]1O[C@@H](Oc2cc3c(O)cc(O)cc3[o+]c2-c2ccc(O)cc2)[C@H](O)[C@@H](O)[C@@H]1O [Pelargonidin-3-glucoside] | 1.272 μM substrate hydrolysed/hr | inhibition of SGLT1 | SGLT1 |  |  | Resistance to hydrolysis-% Q4G [1]: 58.94%
O=C(CCc1ccc(O)cc1)c1c(O)cc(O)cc1O[C@@H]1O[C@H](CO)[C@@H](O)[C@H](O)[C@H]1O [Phloridzin, reference compound] | 0.507 μM substrate hydrolysed/hr |  |  |  |  | Resistance to hydrolysis-% Q4G [1]: 83.64%
O=C1C[C@@H](c2ccccc2)Oc2cc(O)cc(O)c21 [Pinocembrin] |  |  | GLUT2 (GLUT2 inhibitors having ≧20% inhibition at both 5 mM and 25 mM D-glucose levels) | 48.1% | 47.7% | 
O=c1c(O[C@@H]2O[C@H](CO)[C@@H](O)[C@H](O)[C@H]2O)c(-c2ccc(O)c(O)c2)oc2cc(O)cc(O)c12 [Quercetin-3-glucoside] | 0.178 μM substrate hydrolysed/hr | inhibition of SGLT1 | SGLT1 |  |  | 
O=c1c(O)c(-c2ccc(O[C@@H]3O[C@H](CO)[C@@H](O)[C@H](O)[C@H]3O)c(O)c2)oc2cc(O)cc(O)c12 [Quercetin-4-glucoside, reference compound] |  | inhibition of SGLT1 | SGLT1 |  |  | degradation by hLPH (in words) ([1]; Caco-2): highest degree of degradation by hLPH
O=c1c(O)c(-c2ccc(O)c(O)c2)oc2cc(O)cc(O)c12 [Quercetin] |  |  | GLUT2 (GLUT2 inhibitors having ≧20% inhibition at both 5 mM and 25 mM D-glucose levels) | 61.4% | 80.8% | 
O=C(O)/C=C/c1ccc(O)c(O)c1 [caffeic acid] |  | no inhibitory activity |  |  |  | GLUT2 inhibitory activity (in words) (GLUT2): no inhibitory activity
O=C(/C=C/c1ccc(O)c(O)c1)O[C@@H]1C[C@](O)(C(=O)O)C[C@@H](O)[C@H]1O [chlorogenic acid] |  | no inhibitory activity |  |  |  | GLUT2 inhibitory activity (in words) (GLUT2): no inhibitory activity
O=C(/C=C/c1ccc(O)c(O)c1)O[C@H](Cc1ccc(O)c(O)c1)C(=O)O [rosmarinic acid] |  | no inhibitory activity |  |  |  | GLUT2 inhibitory activity (in words) (GLUT2): no inhibitory activity
